Data taken from patent publication US8124635B2, “Antimicrobial composition useful for preserving wood” (Rohm and Haas Company, priority 2006, dated 2012).
Read-outs that look alike come from different tables or passages of the source. Blank lines part the entries; values can stand above or below the molecule they belong to.

Key:
Type in all cases: cell-based
[1] = test system: Staphylococcus aureus (S. aureus—ATCC # 6538); assay: Microtiter plate MIC / synergy test (Kull synergy index), M9GY medium, 30° C.; set-up: Ca = Component A (tebuconazole), end-point concentration (MIC), alone or in mixture / Ca = Component A (propiconazole), end-point concentration (MIC), alone or in mixture: unit: ppm; details: for MIC: Staphylococcus aureus, read-out: MIC of the component acting alone (end point); for Cb = Component B (OIT), end-point concentration (MIC), alone or in mixture: Component A propiconazole
Source text: (§1) One measure of synergism is the industrially accepted method described by Kull, F. C.; Eisman, P. C.; Sylwestrowicz, H. D. and Mayer, R. L., in Applied Microbiology 9:538-541 (1961), using the ratio determined by the formula: Ca/CA+Cb/CB=Synergy Index (“SI”) wherein: • CA=concentration of compound A (first component) in ppm, acting alone, which produced an end point (MIC of Compound A). • Ca=concentration of compound A in ppm, in the mixture, which produced an end point. • CB=concentration of compound B (second component) in ppm, acting alone, which produced an end point (MIC of Compound B). • Cb=concentration of compound B in ppm, in the mixture, which produced an end point.
(§2) When the sum of Ca/CA and Cb/CB is greater than one, antagonism is indicated. […] The lower the SI, the greater the synergy shown by that particular mixture. The minimum inhibitory concentration (MIC) of an antimicrobial compound is the lowest concentration tested under a specific set of conditions that prevents the growth of added microorganisms.
(§3) Synergy tests were conducted using standard microtiter plate assays with media designed for optimal growth of the test microorganism. Minimal salt medium supplemented with 0.2% glucose and 0.1% yeast extract (M9GY medium) was used for bacteria testing; Potato Dextrose Broth (PDB medium) was used for yeast and mold testing. In this method, a wide range of combinations of microbicides was tested by conducting high resolution MIC assays in the presence of various concentrations of biocides. High resolution MICs were determined by adding varying amounts of microbicide to one column of a microtitre plate and doing subsequent ten-fold dilutions using an automated liquid handling system to obtain a series of end points ranging of active ingredient. The synergy of the combinations of the present invention was determined against two bacteria, Pseudomonas aeruginosa (Ps. aeruginosa—ATCC # 9027) and Staphylococcus aureus (S. aureus—ATCC # 6538), a yeast, Candida albicans (C. albicans—ATCC # 10231), and a mold, Aspergillus niger (A. niger—ATCC 16404). The bacteria were used at a concentration of about 1-6×10^6 bacteria per mL and the yeast and mold at 1−5×10^5 fungi per mL. These microorganisms are representative of natural contaminants in many consumer and industrial applications. […] (yeast and mold) or 30° C. (bacteria).

[2] = test system: Gloeophyllum trabeum (G. trabeum—ATCC # 11593); assay: Application test: treated paper disc on Malt agar plate, fungal growth observed visually after 4 weeks; details: G. trabeum ATCC # 11539, contact time 4 weeks
Procedure: (§4) An application test was performed to evaluate synergy of DCOIT/thifluzamide alone and in combination against Gloeophyllum trabeum (G. trabeum—ATCC # 11593) and Trametes vesicolor (T. vesicolor—ATCC # 4262). A paper disc was dipped in the treatment solution, air dried and placed on Malt agar plate streaked with the test organisms. The surface of the disc was also swabbed with the test organisms. The agar plates were incubated at 25° C. for 4 weeks. Fungal growth was then observed visually.

[3] = test system: Trametes vesicolor (T. vesicolor—ATCC # 4262); assay: as above; details: T. vesicolor ATCC # 42462, contact time 4 weeks
Procedure: as §4

[4] = test system: Pseudomonas aeruginosa (Ps. aeruginosa—ATCC # 9027); assay: Microtiter plate MIC / synergy test (Kull synergy index), M9GY medium, 30° C.; details: for MIC: Pseudomonas aeruginosa, read-out: MIC of the component acting alone (end point); for Cb = Component B (OIT), end-point concentration (MIC), alone or in mixture: Component A propiconazole; for Ca = Component A (propiconazole), end-point concentration (MIC), alone or in mixture: Component B OIT
Source text: as §1, §2, §3

[5] = test system: Candida albicans (C. albicans—ATCC # 10231); assay: Microtiter plate MIC / synergy test (Kull synergy index), PDB medium, 25° C.; set-up: Ca = Component A (tebuconazole), end-point concentration (MIC), alone or in mixture / Ca = Component A (propiconazole), end-point concentration (MIC), alone or in mixture: unit: ppm; details: for MIC of the component acting alone (end point) / MIC: C. albicans; for Cb = Component B (OIT), end-point concentration (MIC), alone or in mixture: Component A propiconazole; for MIC: Candida albicans, read-out: MIC of the component acting alone (end point)
Source text: as §1, §2, §3

[6] = test system: Aspergillus niger (A. niger—ATCC 16404); assay: as above; details: for MIC: Aspergillus niger, read-out: MIC of the component acting alone (end point)
Source text: as §1, §2, §3

[7] = ATCC6538, 24 h, S. aureus, contact time 24 hour
[8] = ATCC6538, 48 h, S. aureus, contact time 48 hour
[9] = ATCC9027, 24 h, Ps. aeruginosa, contact time 24 hour
[10] = ATCC9027, 48 h, Ps. aeruginosa, contact time 48 hour
[11] = S. aureus, contact time 24 hour
[12] = S. aureus, contact time 48 hour
[13] = Ps. aeruginosa, contact time 24 hour
[14] = ATCC10231, 24 h, contact time 24 hour
[15] = Ps. Aeruginosa ATCC # 9027, contact time 24 hour
[16] = Ps. Aeruginosa ATCC # 9027, contact time 48 hour
[17] = ATCC16404, 72 h, A. niger, contact time 3 days
[18] = ATCC16404, 168 h, A. niger, contact time 7 days
[19] = S. aureus, contact time 24 hour, Component B CMIT/MIT
[20] = S. aureus, contact time 24 hour, Component B copper 8-hydroxyquinoline
[21] = S. aureus, contact time 48 hour, Component B copper 8-hydroxyquinoline
[22] = C. albicans ATCC # 10231, contact time 24 hour, Component B CMIT/MIT
[23] = C. albicans ATCC # 10231, contact time 24 hour, Component B copper 8-hydroxyquinoline
[24] = C. albicans ATCC # 10231, contact time 48 hour, Component B copper 8-hydroxyquinoline
[25] = A. niger ATCC # 16404, contact time 3 days, Component B copper 8-hydroxyquinoline
[26] = A. niger ATCC # 16404, contact time 7 days, Component B copper 8-hydroxyquinoline

MIC [1, 7]: 0.1 µg/mL
MIC [1, 8]: 0.4 µg/mL
MIC [4, 9]: 3.2 µg/mL
MIC [4, 10]: 5.3 µg/mL
Compound: CCCCCCCCn1sc(Cl)c(Cl)c1=O [DCOIT, 4,5-dichloro-2-n-octyl-4-isothiazolin-3-one]
Ca = Component A (DCOIT), end-point concentration, alone or in mixture ([2]; Component B thifluzamide): 320
Ca = Component A (DCOIT), end-point concentration, alone or in mixture ([3]; Component B thifluzamide): 320

Compound: CCCCNC(=O)OCC#CI [IPBC, 3-iodo-2-propynyl-butylcarbamate]
MIC of the component acting alone (end point) [1, 11]: 34 ppm
MIC of the component acting alone (end point) [1, 12]: 42 ppm
MIC of the component acting alone (end point) ([5]; contact time 24 hour): 4.2 ppm
MIC of the component acting alone (end point) ([5]; contact time 48 hour): 4.2 ppm
MIC of the component acting alone (end point) [4, 13]: 263 ppm
MIC of the component acting alone (end point) ([4]; Ps. aeruginosa, contact time 48 hour): 263 ppm
MIC of the component acting alone (end point) ([6]; A. niger, contact time 3 days): 0.4 ppm

Compound: Cn1sccc1=O [MI, 2-methyl-4-isothiazolin-3-one]
MIC ([1]; ATCC6538, 24 h): 30 µg/mL
MIC ([1]; ATCC6538, 48 h): 40 µg/mL
MIC ([4]; ATCC9027, 24 h): 20 µg/mL
MIC ([4]; ATCC9027, 48 h): 20 µg/mL
MIC ([6]; ATCC16404, 72 h): 450 µg/mL
MIC ([6]; ATCC16404, 168 h): 450 µg/mL

Compound: CCCCCCCCn1sccc1=O [OIT, 2-n-octyl-4-isothiazolin-3-one]
Cb = Component B (OIT), end-point concentration (MIC), alone or in mixture [1, 11]: 63
Cb = Component B (OIT), end-point concentration (MIC), alone or in mixture [1, 12]: 78
MIC [1, 7]: 63 µg/mL
MIC [1, 8]: 78 µg/mL
Cb = Component B (OIT), end-point concentration (MIC), alone or in mixture ([5]; C. albicans ATCC # 10231, contact time 24 hour): 1.3
Cb = Component B (OIT), end-point concentration (MIC), alone or in mixture ([5]; C. albicans ATCC # 10231, contact time 48 hour): 1.3
MIC of the component acting alone (end point) ([5]; contact time 24 hour): 0.9 ppm
MIC [5, 14]: 0.6 µg/mL
MIC ([5]; ATCC10231, 48 h, contact time 48 hour): 0.9 µg/mL
Cb = Component B (OIT), end-point concentration (MIC), alone or in mixture [4, 15]: 390
Cb = Component B (OIT), end-point concentration (MIC), alone or in mixture [4, 16]: 525
MIC of the component acting alone (end point) [4, 13]: 390 ppm
MIC [4, 9]: 390 µg/mL
MIC [4, 10]: 415 µg/mL
MIC [6, 17]: 3.3 µg/mL
MIC [6, 18]: 3.3 µg/mL

Compound: CCCC1COC(Cn2cncn2)(c2ccc(Cl)cc2Cl)O1 (stereo not shown) [propiconazole]
Ca = Component A (propiconazole), end-point concentration (MIC), alone or in mixture [1, 19]: 100
Ca = Component A (propiconazole), end-point concentration (MIC), alone or in mixture ([1]; S. aureus, contact time 24 hour, Component B OIT): 100
Ca = Component A (propiconazole), end-point concentration (MIC), alone or in mixture [1, 20]: 100
Ca = Component A (propiconazole), end-point concentration (MIC), alone or in mixture ([1]; S. aureus, contact time 48 hour, Component B OIT): 100
Ca = Component A (propiconazole), end-point concentration (MIC), alone or in mixture [1, 21]: 100
MIC [1, 7]: 100 µg/mL
Ca = Component A (propiconazole), end-point concentration (MIC), alone or in mixture [5, 22]: 50
Ca = Component A (propiconazole), end-point concentration (MIC), alone or in mixture ([5]; C. albicans ATCC # 10231, contact time 24 hour, Component B OIT): 50
Ca = Component A (propiconazole), end-point concentration (MIC), alone or in mixture [5, 23]: 50
Ca = Component A (propiconazole), end-point concentration (MIC), alone or in mixture ([5]; C. albicans ATCC # 10231, contact time 48 hour, Component B OIT): 50
Ca = Component A (propiconazole), end-point concentration (MIC), alone or in mixture [5, 24]: 50
Ca = Component A (propiconazole), end-point concentration (MIC), alone or in mixture [4, 15]: 800
Ca = Component A (propiconazole), end-point concentration (MIC), alone or in mixture [4, 16]: 800
Ca = Component A (propiconazole), end-point concentration (MIC), alone or in mixture ([6]; A. niger ATCC # 16404, contact time 3 days, Component B CMIT/MIT): 20
Ca = Component A (propiconazole), end-point concentration (MIC), alone or in mixture [6, 25]: 20
Ca = Component A (propiconazole), end-point concentration (MIC), alone or in mixture [6, 26]: 25
MIC [6, 17]: 20 µg/mL
MIC [6, 18]: 20 µg/mL

Compound: CC(C)(C)C(O)(CCc1ccc(Cl)cc1)Cn1cncn1 (stereo not shown) [tebuconazole]
Ca = Component A (tebuconazole), end-point concentration (MIC), alone or in mixture [1, 19]: 50
Ca = Component A (tebuconazole), end-point concentration (MIC), alone or in mixture [1, 20]: 50
Ca = Component A (tebuconazole), end-point concentration (MIC), alone or in mixture ([1]; S. aureus, contact time 48 hour, Component B CMIT/MIT): 50
Ca = Component A (tebuconazole), end-point concentration (MIC), alone or in mixture [1, 21]: 50
MIC [1, 7]: 50 µg/mL
MIC [1, 8]: 50 µg/mL
Ca = Component A (tebuconazole), end-point concentration (MIC), alone or in mixture [5, 22]: 50
Ca = Component A (tebuconazole), end-point concentration (MIC), alone or in mixture [5, 23]: 60
Ca = Component A (tebuconazole), end-point concentration (MIC), alone or in mixture ([5]; C. albicans ATCC # 10231, contact time 48 hour, Component B CMIT/MIT): 50
Ca = Component A (tebuconazole), end-point concentration (MIC), alone or in mixture [5, 24]: 60
MIC [5, 14]: 50 µg/mL
Ca = Component A (tebuconazole), end-point concentration (MIC), alone or in mixture ([4]; Ps. Aeruginosa ATCC # 9027, contact time 24 hour, Component B copper 8-hydroxyquinoline): 900
MIC [4, 9]: 900 µg/mL
MIC [4, 10]: 900 µg/mL
Ca = Component A (tebuconazole), end-point concentration (MIC), alone or in mixture [6, 25]: 8
Ca = Component A (tebuconazole), end-point concentration (MIC), alone or in mixture [6, 26]: 8
MIC [6, 17]: 8 µg/mL
MIC [6, 18]: 8 µg/mL

Compound: Cc1nc(C(F)(F)F)c(C(=O)Nc2c(Br)cc(OC(F)(F)F)cc2Br)s1 [thifluzamide]
Cb = Component B (thifluzamide), end-point concentration, alone or in mixture ([2]; Component A DCOIT): >960
Cb = Component B (thifluzamide), end-point concentration, alone or in mixture ([3]; Component A DCOIT): 320
